Data as given in patent US4406903A, “Xanthine derivatives useful as antidepressives” (John Wyeth and Brother Limited, priority 1981, dated 1983).
Where a name gives a salt, the structure may show the parent alone.

How the values were obtained:
noradrenaline uptake = experiment: Inhibition of Noradrenaline Uptake in Brain Slices (Procedure 1); type: cell-based, rat; details: 3H-noradrenaline 10^-7 M; active if % inhibition at 10^-6 M is at least that of imipramine at 10^-7 M
Description: (§1) Inhibition of 5-Hydroxytryptamine or Noradrenaline Uptake in Brain Slices
Two rates (weighing 170-200 g) are decapitated and the brains rapidly removed and placed in ice-cold Krebs solution. The cerebral cortex on each side of the median line is opened out flat and cut to give two slabs of even thickness. The slabs are weighed and then sliced on a McIlwain tissue chopper. The tissue is sliced twice, the second cutting being at an angle of 45° to the first. The interval of cutting is 0.1 mm. The slices are transferred to a 5 ml conical flask and Krebs solution is added in the proportion 5 ml/g tissue. The slices are dispersed in the solution by sucking up and down in a Pasteur pipette. […]
(§2) The filter papers are placed in scintillation vials and soaked in 4 ml ethanol/methanol (3:1 v/v) for at least 45 minutes before addition of 10 ml liquid scintillator after which the samples are counted in a liquid scintillation counter.
Uptake inhibition is expressed as follows: [formula] […] In this case a dose response experiment is carried out with the test compound and impramine at concentrations of 10^-5 M, 10^-6 M and 10^-7 M. The % inhibition is again calculated in the same way and the results are plotted as % inhibition against log compound concentration. […] The potency ratio compared to imipramine is calculated as: [formula] […]

[1] = system: 5-hydroxytryptamine uptake; experiment: Inhibition of 5-Hydroxytryptamine Uptake in Brain Slices (Procedure 1); type: cell-based, rat; details: for inhibition at 0.1 µM / inhibition at 1 µM / inhibition at 10 µM: rat cerebral cortex slices, 3H 5-hydroxytryptamine 10^-7 M; for Inhibition of 5-hydroxytryptamine uptake, potency ratio compared with imipramine: IC50-based ratio versus imipramine, rat brain slices; for Potency in 5-hydroxytryptamine tests (in words, versus imipramine): qualitative comparison with the standard inhibitor imipramine
Description: as §1
Two rates (weighing 170-200 g) are decapitated and the brains rapidly removed and placed in ice-cold Krebs solution. The cerebral cortex on each side of the median line is opened out flat and cut to give two slabs of even thickness. The slabs are weighed and then sliced on a McIlwain tissue chopper. The tissue is sliced twice, the second cutting being at an angle of 45° to the first. The interval of cutting is 0.1 mm. The slices are transferred to a 5 ml conical flask and Krebs solution is added in the proportion 5 ml/g tissue. The slices are dispersed in the solution by sucking up and down in a Pasteur pipette. When a satisfactory suspension is achieved it is pipetted in 50 μl portions into 25 ml conical flasks containing 4.5 ml chilled Krebs solution. An Eppendorf pipette with the tip cut back to about 1 mm diameter is used. The suspension is kept well mixed at this stage so that each portion taken contains the same amount of tissue (~10 mg). The flasks are gassed with 95% O2 /5% CO2 and sealed with aluminium foil. They are then placed in a water bath at 27° for 15 minutes pre-incubation.
Flasks in groups of four are then each treated by an addition in 0.5 ml. to achieve the following concentrations in the medium. […]
______________________________________
GROUP CONCENTRATION (CONCENTRATION)
A 10^-7 M TEST COMPOUND (10^-5 M)
B 10^-7 M IMIPRAMINE (10^-5 M)
C 10^-7 M IMIPRAMINE (10^-6 M)
D 10^-7 M IMIPRAMINE (10^-7 M)
After 20 minutes incubation the slices are filtered off in filter funnels connected to a vacuum line. Each flask in rinsed with 5 ml Krebs which is also poured through the filter funnel followed by a further 5 ml Krebs. For group F the treatment differs in that ^3 H 5-hydroxytryptamine in 0.5 ml is added immediately before filtration. This gives an estimation of the amount of activity retained by the filter from the solution together with the amount of non-specific binding by the tissue.
as §2
Uptake inhibition is expressed as follows: [formula] […] In this case a dose response experiment is carried out with the test compound and impramine at concentrations of 10^-5 M, 10^-6 M and 10^-7 M. The % inhibition is again calculated in the same way and the results are plotted as % inhibition against log compound concentration. The molar concentration which inhibits uptake by 50% (IC50) is determined. The potency ratio compared to imipramine is calculated as: [formula]

[2] = system: 5-hydroxytryptamine reuptake; experiment: Inhibition of 5-hydroxytryptamine reuptake in rat cortical synaptosomes (Procedure 2); type: biochemical; details: for Selectivity Ratio (5-HT uptake over NA uptake): from IC50 values of NA and 5-HT uptake; for IC50: 10^-7 M 14C-5-hydroxytryptamine, 37° C., 4 min, pH 7.4, read-out: 5-HT Uptake IC50
Text: (§3) Inhibition of 5-hydroxytryptamine and L-noradrenaline reuptake in rat cortical synaptosomes
(§4) "The isolation of nerve endings from brain: An electron microscopic study of cell fragments dervied by homogenisation and centrifugation."
(§5) Test object: Purified rat cortical synaptosomes (P2 B) from 8-10 male albino rats (190-250 g).
Procedure: Rats are stunned and then killed by decapitation. The brain is quickly removed and the cortex excised essentially free of striatum and mid-brain. […] The homogenate of concentration 10% w/v in 0.32 sucrose is centrifuged at an average centrifugal force of 1000×g for 10 minutes and the supernatant is decanted and centrifuged at an average of 10000×g for 20 min to obtain the crude mitochondrial pellet (P2). […] The synaptosomes are then centrifuged in a swing-out rotor at 97 000×g average for 30 min. […] (2 ml/g original tissue). Throughout the procedure, it is essential to maintain the tissue and synaptosomes at […]. Synaptosomes should be used within three hours of preparation. A 100 μl aliquot of this synaptosomal suspension (2.5-3.0 mg protein/ml) is added to the incubation medium (900 μl) which has been preincubated at 37° C. for 5 min. […] All reagents are of `Analar` grade and glass distilled water is used.
The quantity of material prepared per experiment would normally be sufficient to examine the effects of 30 different treatments (e.g. 6 compounds each at 5 concentrations in triplicate). […] The filters are then washed with 2.4 ml incubation medium. The radioactivity retained on the filter is determined by the addition of Instagel (10 ml) (Packard) and subsequent liquid scintillation counting to convert results into dpm. The non-specific binding and passive accumulation of both amines is corrected for by determining uptake in a sodium-free medium. Percentage inhibition of uptake is calculated as [formula] where background dpm is that accumulated in a sodium-free medium.
Assays are run in triplicate, with 2 or 3 control and background determinations inserted randomly. The selectivity ratio is calculated as: [formula]

L-noradrenaline reuptake = experiment: Inhibition of L-noradrenaline reuptake in rat cortical synaptosomes (Procedure 2); type: biochemical; details: 10^-7 M 3H-L-noradrenaline, 37° C., 4 min, pH 7.4, read-out: NA Uptake IC50
Text: as §3
Ref: E. G. Gray and V. P. Whittaker (1962). J. Anat 96, p 79-88.
as §4, §5
Procedure: Rats are stunned and then killed by decapitation. The brain is quickly removed and the cortex excised essentially free of striatum and mid-brain. The tissue is then gently homogenised (10 strokes at 840 rpm) in 0.32 M sucrose. […]
Test compounds may be present in 4 to 6 concentrations depending on previous experience, but normally the range would be 10^-9 M to 10^-6 M for an active compound. The quantity of material prepared per experiment would normally be sufficient to examine the effects of 30 different treatments (e.g. 6 compounds each at 5 concentrations in triplicate). […] The radioactivity retained on the filter is determined by the addition of Instagel (10 ml) (Packard) and subsequent liquid scintillation counting to convert results into dpm. […] Percentage inhibition of uptake is calculated as [formula] where background dpm is that accumulated in a sodium-free medium. […]

SMILES | Inhibition of noradrenaline uptake (noradrenaline uptake) | inhibition at 0.1 µM [1] [%] | inhibition at 1 µM [1] [%] | inhibition at 10 µM [1] [%] | Inhibition of 5-hydroxytryptamine uptake, potency ratio compared with imipramine [1] | Potency in 5-hydroxytryptamine tests (in words, versus imipramine) [1] | Selectivity Ratio (5-HT uptake over NA uptake) ([2]; rat cortical synaptosomes) | Selectivity of action (in words) ([2]; qualitative, 5-HT versus NA uptake) | Inhibition of 5-HT uptake (in words) ([2]; qualitative, rat cortical synaptosomes) | IC50 ([2]; rat cortical synaptosomes) [µM] | IC50 (L-noradrenaline reuptake) [µM]
Cn1c(=O)c2c(ncn2CCCNCCc2c[nH]c3ccc(O)cc23)n(C)c1=O [Example 1, 5-hydroxy-N-[3-(theophyllin-7-yl)propyl]tryptamine hydrochloride hemihydrate] | INACTIVE | 44 | 77 | 84 | 4.3 | considerably more potent than imipramine | > 167 | very selective in its action | very potent inhibitor of 5-HT uptake | 0.06 | > 10
Cn1c(=O)c2c(ncn2CCCNCCc2c[nH]c3ccccc23)n(C)c1=O [Example 3, N-[3-theophyllin-7-yl)propyl]tryptamine hydrochloride] | INACTIVE | 4 | 43 | 77 | 0.8 | about the same order of potency as the standard inhibitor imipramine |  |  |  |  | 
CN(C)CCCN1c2ccccc2CCc2ccccc21 [imipramine, reference compound] |  |  |  |  |  |  | 0.5 |  |  | 0.1 | 0.05
